Values joined by “and” are separate entries in the source; they are usually repeats but may differ in a detail not shown here. Equal entries are not always repeated.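 Exposure lasted 48 hours, with cells grown in 96-well plates and compounds tested at five concentrations. Here, GI50 denotes the concentration required for 50% inhibition of growth.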 Active and inactive are the calls of the source. No stated cut-off is given here; in the data, active = GI50 up to about 1.1 µM and inactive = higher.
Columns and labels:
Test in all cases: NCI tumour cell line growth inhibition, 48 h
[1] = tested on: MOLT-4
[2] = tested on: IGROV-1
[3] = tested on: SK-MEL-5
[4] = tested on: SK-MEL-28
[5] = tested on: HCC 2998
[6] = tested on: SK-OV-3
[7] = tested on: ACHN
[8] = tested on: NCI-H522
[9] = tested on: SF-295
[10] = tested on: OVCAR-5
[11] = tested on: M14
[12] = tested on: K562
[13] = tested on: Malme-3M
[14] = tested on: HCT-116
[15] = tested on: HT-29
[16] = tested on: SR
[17] = tested on: OVCAR-8
[18] = tested on: MDA-MB-435
[19] = tested on: 786-0
[20] = tested on: RXF 393
[21] = tested on: A498
[22] = tested on: SF-268
[23] = tested on: HL-60
[24] = tested on: HCT-15
[25] = tested on: T47D
[26] = tested on: CAKI-1
[27] = tested on: SNB-19
[28] = tested on: SN12C
[29] = tested on: HOP-92
[30] = tested on: LOX IMVI
[31] = tested on: NCI-H460
[32] = tested on: TK-10
[33] = tested on: PC-3
[34] = tested on: RPMI-8226
[35] = tested on: UACC-257
[36] = tested on: MDA-N
[37] = tested on: NCI/ADR-RES
[38] = tested on: OVCAR-3
[39] = tested on: EKVX
[40] = tested on: NCI-H23
[41] = tested on: NCI-H226
[42] = tested on: HOP-62
[43] = tested on: A549
[44] = tested on: COLO 205
[45] = tested on: UACC-62
[46] = tested on: MDA-MB-231
[47] = tested on: Hs-578T
[48] = tested on: UO-31
[49] = tested on: CCRF-CEM
[50] = tested on: MCF7
[51] = tested on: DU-145
[52] = tested on: SK-MEL-2
[53] = tested on: OVCAR-4
[54] = tested on: U-251
[55] = tested on: SF-539
[56] = tested on: KM12
[57] = tested on: SW-620
[58] = tested on: BT-549
[59] = tested on: SNB-75

With `CC(=O)N1NC(c2ccccc2)=CC(=O)/C1=C/C(=O)c1ccccc1` the GI50 [1] was 52.5 µM (inactive), the GI50 [2] was 34.3 µM (inactive) and the GI50 [3] was 47.8 µM (inactive). For the same compound, the GI50 [4] was > 100 µM (inactive), the GI50 [5] was > 100 µM (inactive) and the GI50 [6] was > 100 µM (inactive). For the same compound, the GI50 [7] was 77.3 µM (inactive), the GI50 [8] was 15.9 µM (inactive) and the GI50 [9] was 58.2 µM (inactive). For the same compound, the GI50 [10] was > 100 µM (inactive), the GI50 [11] was 82.2 µM (inactive) and the GI50 [12] was 56 µM (inactive). For the same compound, the GI50 [13] was 37.6 µM (inactive), the GI50 [14] was 62.2 µM (inactive) and the GI50 [15] was > 100 µM (inactive). The GI50 [16] was 20.7 µM (inactive), the GI50 [17] was > 100 µM (inactive) and the GI50 [18] was 20.2 µM (inactive). For the same compound, the GI50 [19] was > 100 µM (inactive), the GI50 [20] was 24.2 µM (inactive) and the GI50 [21] was > 100 µM (inactive). The GI50 [22] was 29.2 µM (inactive), the GI50 [23] was 35.2 µM (inactive) and the GI50 [24] was 70.8 µM. The GI50 [25] was 39.3 µM (inactive), the GI50 [26] was 29.7 µM (inactive) and the GI50 [27] was 58.7 µM (inactive). The GI50 [28] was 82.8 µM (inactive), the GI50 [29] was 34.5 µM (inactive) and the GI50 [30] was 40.9 µM (inactive). For the same compound, the GI50 [31] was 71.1 µM (inactive), the GI50 [32] was 48.8 µM (inactive) and the GI50 [33] was > 100 µM (inactive). The GI50 [34] was 31.3 µM (inactive), the GI50 [35] was > 100 µM (inactive) and the GI50 [36] was 30.6 µM (inactive). The GI50 [37] was 50.4 µM (inactive), the GI50 [38] was 28.6 µM (inactive) and the GI50 [39] was 49.2 µM (inactive). For the same compound, the GI50 [40] was > 100 µM (inactive), the GI50 [41] was 93.8 µM (inactive) and the GI50 [42] was 88.1 µM (inactive). The GI50 [43] was 53.1 µM (inactive), the GI50 [44] was > 100 µM (inactive) and the GI50 [45] was 42.5 µM (inactive). The GI50 [46] was > 100 µM (inactive), the GI50 [47] was 39.9 µM (inactive) and the GI50 [48] was 98.4 µM (inactive). The GI50 [49] was 29.8 µM (inactive), the GI50 [50] was 43.7 µM (inactive) and the GI50 [51] was > 100 µM (inactive). The GI50 [52] was > 100 µM (inactive), the GI50 [53] was 84.1 µM (inactive) and the GI50 [54] was > 100 µM (inactive). The GI50 [55] was 32.1 µM (inactive) and the GI50 [56] was 75.5 µM (inactive).
In the case of `CCOC(=O)c1c(-c2ccc(OC)c(O)c2)c(C#N)c(=S)n(C2OC(COC(C)=O)C(OC(C)=O)C(OC(C)=O)C2OC(C)=O)c1-c1ccccc1` (configuration not stated), the GI50 [57] is reported as 59.7 µM (inactive), the GI50 [58] is reported as 28.8 µM (inactive) and the GI50 [8] is reported as 21.4 µM (inactive). The GI50 [9] was 52.8 µM (inactive), the GI50 [10] was > 100 µM (inactive) and the GI50 [13] was 32.4 µM (inactive). For the same compound, the GI50 [16] was > 100 µM (inactive) and 60.3 µM (inactive), the GI50 [17] was > 100 µM (inactive) and the GI50 [20] was 50.1 µM (inactive). The GI50 [21] was > 100 µM (inactive), the GI50 [27] was > 100 µM (inactive) and 83.2 µM (inactive) and the GI50 [31] was 67.1 µM (inactive) and 34 µM (inactive). For the same compound, the GI50 [41] was > 100 µM (inactive), the GI50 [43] was 51.9 µM (inactive) and the GI50 [54] was 90.4 µM (inactive).
For `CC(C)[Si](OC1=CCCCCC12C(=O)N(C)c1ccccc12)(C(C)C)C(C)C` (configuration not stated), the GI50 [1] was 32.5 µM (inactive), the GI50 [2] was 25.1 µM (inactive) and the GI50 [3] was 17.5 µM (inactive). For the same compound, the GI50 [4] was 23.6 µM (inactive), the GI50 [5] was 21.7 µM (inactive) and the GI50 [57] was 17.3 µM (inactive). For the same compound, the GI50 [6] was 20.5 µM (inactive), the GI50 [7] was 16.8 µM (inactive) and the GI50 [8] was 16.9 µM (inactive). The GI50 [9] was 13.5 µM (inactive), the GI50 [10] was 16.9 µM (inactive) and the GI50 [11] was 23.3 µM (inactive). For the same compound, the GI50 [12] was 24.1 µM (inactive), the GI50 [13] was 20.2 µM (inactive) and the GI50 [15] was 20.5 µM (inactive). The GI50 [16] was 29.9 µM (inactive), the GI50 [59] was 13.5 µM (inactive) and the GI50 [17] was 21 µM (inactive). The GI50 [18] was 25.1 µM (inactive), the GI50 [19] was 17.7 µM (inactive) and the GI50 [20] was 8.77 µM (inactive). For the same compound, the GI50 [21] was 15.8 µM (inactive), the GI50 [22] was 18.4 µM (inactive) and the GI50 [23] was 17.1 µM (inactive). The GI50 [24] was 17.6 µM, the GI50 [25] was 2.88 µM (inactive) and the GI50 [26] was 16.5 µM (inactive). The GI50 [27] was 14.9 µM (inactive), the GI50 [29] was 16.5 µM (inactive) and the GI50 [30] was 19.5 µM (inactive). The GI50 [31] was 17.6 µM (inactive), the GI50 [32] was 29 µM (inactive) and the GI50 [33] was 25.5 µM (inactive). For the same compound, the GI50 [34] was 15.1 µM (inactive), the GI50 [35] was 14.9 µM (inactive) and the GI50 [36] was 28.4 µM (inactive). For the same compound, the GI50 [37] was 18.8 µM (inactive), the GI50 [38] was 16.3 µM (inactive) and the GI50 [39] was 17.7 µM (inactive). The GI50 [40] was 19.5 µM (inactive), the GI50 [41] was 20.2 µM (inactive) and the GI50 [42] was 21.6 µM (inactive). For the same compound, the GI50 [43] was 19.8 µM (inactive), the GI50 [44] was 18.9 µM (inactive) and the GI50 [45] was 18.2 µM (inactive). The GI50 [46] was 22.4 µM (inactive), the GI50 [47] was 21.6 µM (inactive) and the GI50 [48] was 21.3 µM (inactive). The GI50 [49] was 17.1 µM (inactive), the GI50 [50] was 16.9 µM (inactive) and the GI50 [51] was 15 µM (inactive). The GI50 [52] was 18.2 µM (inactive), the GI50 [53] was 24.7 µM (inactive) and the GI50 [54] was 18.5 µM (inactive). The GI50 [55] was 22.5 µM (inactive) and the GI50 [56] was 18.5 µM (inactive).

From ChEMBL document CHEMBL1201862, “PubChem BioAssay data set” (2004)
